Data published in US11986532B2 (Arvinas Operations, Inc., priority 2021, dated 2024).
Read-outs that look alike come from different tables or passages of the source.

Biological target: T1, BCL6 (Homo sapiens, UniProt P41182)
T1 construct: endogenous in cells; host or cells: T47D breast cancer epithelial cells
Experiment: Immunofluorescence protocol for high content imaging of BCL6 (degradation) in T47D cells, 3 days compound treatment
Type: cell-based
Details: for DC50: read-out: Mean DC50 (nM)* category; for Dmax: read-out: Mean Dmax (%)** category
Method in brief: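 Remaining BCL6 in breast cancer T47D cells was measured by high-content immunofluorescence imaging after 3 days of treatment with serially diluted compound (top 0.1 or 1 μM). Nuclei were stained with Hoechst and cells with CellMask.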

[1] = T47D cells, 3 days compound treatment

Compound | DC50 [1] [nM] | Dmax [1] [%] | Dmax (T47D) [%] | DC50 [nM]
CNC(=O)COc1cc2cc(Nc3nc(N4CCN(C(C)(C)C5CCN(c6cc(F)c7c(c6)CN(C6CCC(=O)NC6=O)C7=O)CC5)CC4)ncc3Cl)ccc2n(C(C)C)c1=O (stereo not shown) [Compound 76, 2-{[6-({5-chloro-2-[4-(2-{1-[2-(2,6-dioxopiperidin-3-yl)-7-fluoro-1-oxo-2,3-dihydro-1H-isoindol-5-yl]piperidin-4-yl}propan-2-yl)piperazin-1-yl]pyrimidin-4-yl}amino)-2-oxo-1-(propan-2-yl)-1,2-dihydroquinolin-3-yl]oxy}-N-methylacetamide] | < 10 | 50 to 70 |  | 
CNC(=O)COc1cc2cc(Nc3nc(N4CCC(OC5CCC6(CC5)CN(c5ccc(F)c7c5CN(C5CCC(=O)NC5=O)C7=O)C6)CC4)ncc3Cl)ccc2n(C(C)C)c1=O (stereo not shown) [Compound 312, 2-{[6-({5-chloro-2-[4-({2-[2-(2,6-dioxopiperidin-3-yl)-7-fluoro-1-oxo-2,3-dihydro-1H-isoindol-4-yl]-2-azaspiro[3.5]nonan-7-yl}oxy)piperidin-1-yl]pyrimidin-4-yl}amino)-2-oxo-1-(propan-2-yl)-1,2-dihydroquinolin-3-yl]oxy}-N-methylacetamide] |  |  | 50 to 70 | < 10
CNC(=O)COc1cc2cc(Nc3cc(N4CCC(O[C@H]5C[C@H](N6CCC(c7ccc8c(c7F)CN(C7CCC(=O)NC7=O)C8=O)CC6)C5)CC4)ncc3Cl)ccc2n(C(C)C)c1=O (stereo partly shown) [Compound 258, 2-({6-[(5-chloro-2-{4-[(1r,3r)-3-{4-[2-(2,6-dioxopiperidin-3-yl)-4-fluoro-1-oxo-2,3-dihydro-1H-isoindol-5-yl]piperidin-1-yl}cyclobutoxy]piperidin-1-yl}pyridin-4-yl)amino]-2-oxo-1-(propan-2-yl)-1,2-dihydroquinolin-3-yl}oxy)-N-methylacetamide] |  |  | 50 to 70 | < 10
CC[C@H]1CN([C@H]2C[C@H](OC3CCN(c4ncc(Cl)c(Nc5ccc6c(c5)cc(OCC(=O)NC)c(=O)n6C(C)C)n4)CC3)C2)CCN1c1ccc2c(c1Cl)CN(C1CCC(=O)NC1=O)C2=O (stereo partly drawn) [Compound 196, 2-({6-[(5-chloro-2-{4-[(1r,3r)-3-[(3S)-4-[4-chloro-2-(2,6-dioxopiperidin-3-yl)-1-oxo-2,3-dihydro-1H-isoindol-5-yl]-3-ethylpiperazin-1-yl]cyclobutoxy]piperidin-1-yl}pyrimidin-4-yl)amino]-2-oxo-1-(propan-2-yl)-1,2-dihydroquinolin-3-yl}oxy)-N-methylacetamide] | < 10 | ≥ 70 |  | 
CNC(=O)COc1cc2cc(Nc3nc(N4CCC(O[C@H]5C[C@H](N6CCC7(CC6)CN(c6ccc8c(c6C)C(=O)N(C6CCC(=O)NC6=O)C8=O)C7)C5)CC4)ncc3Cl)ccc2n(C(C)C)c1=O (stereo partly shown) [Compound 414, 2-({6-[(5-chloro-2-{4-[(1r,3r)-3-{2-[2-(2,6-dioxopiperidin-3-yl)-4-methyl-1,3-dioxo-2,3-dihydro-1H-isoindol-5-yl]-2,7-diazaspiro[3.5]nonan-7-yl}cyclobutoxy]piperidin-1-yl}pyrimidin-4-yl)amino]-2-oxo-1-(propan-2-yl)-1,2-dihydroquinolin-3-yl}oxy)-N-methylacetamide] |  |  | ≥ 70 | < 10
CNC(=O)COc1cc2cc(Nc3nc(N4CCC(O[C@H]5C[C@H](N6C7CCC6CN(c6ccc8c(c6)C(=O)N(C6CCC(=O)NC6=O)C8=O)C7)C5)CC4)ncc3Cl)ccc2n(C(C)C)c1=O (stereo partly shown) [Compound 372, 2-({6-[(5-chloro-2-{4-[(1r,3r)-3-{3-[2-(2,6-dioxopiperidin-3-yl)-1,3-dioxo-2,3-dihydro-1H-isoindol-5-yl]-3,8-diazabicyclo[3.2.1]octan-8-yl}cyclobutoxy]piperidin-1-yl}pyrimidin-4-yl)amino]-2-oxo-1-(propan-2-yl)-1,2-dihydroquinolin-3-yl}oxy)-N-methylacetamide] |  |  | 50 to 70 | < 10
CNC(=O)COc1cc2cc(Nc3nc(N4CCC(O[C@H]5C[C@H](N6[C@H](C)CN(c7ccc8c(c7)C(=O)N(C7CCC(=O)NC7=O)C8=O)C[C@H]6C)C5)CC4)ncc3Cl)ccc2n(C(C)C)c1=O (stereo partly drawn) [Compound 249, 2-({6-[(5-chloro-2-{4-[(1r,3r)-3-[(2R,6R)-4-[2-(2,6-dioxopiperidin-3-yl)-1,3-dioxo-2,3-dihydro-1H-isoindol-5-yl]-2,6-dimethylpiperazin-1-yl]cyclobutoxy]piperidin-1-yl}pyrimidin-4-yl)amino]-2-oxo-1-(propan-2-yl)-1,2-dihydroquinolin-3-yl}oxy)-N-methylacetamide] |  |  | < 50 | 10 to 50
CNC(=O)COc1cc2cc(Nc3nc(N4CCOC5(CN(CC6CCN(c7ccc8c(c7)C(=O)N(C7CCC(=O)NC7=O)C8=O)CC6)C5)C4)ncc3Cl)ccc2n(C(C)C)c1=O (stereo not shown) [Compound 142, 2-{[6-({5-chloro-2-[2-({1-[2-(2,6-dioxopiperidin-3-yl)-1,3-dioxo-2,3-dihydro-1H-isoindol-5-yl]piperidin-4-yl}methyl)-5-oxa-2,8-diazaspiro[3.5]nonan-8-yl]pyrimidin-4-yl}amino)-2-oxo-1-(propan-2-yl)-1,2-dihydroquinolin-3-yl]oxy}-N-methylacetamide] | ≥ 100 |  |  | 

More lines, main results first:

DC50 [1] [nM] | Dmax [1] [%] | Compound | Dmax (T47D) [%] | DC50 [nM]
< 10 | 50 to 70 | CNC(=O)COc1cc2cc(Nc3nc(N4CCC5(CCN(CC6(F)CCN(c7cccc8c7CN(C7CCC(=O)NC7=O)C8=O)CC6)CC5)CC4)ncc3Cl)ccc2n(C(C)C)c1=O (stereo not shown) [Compound 95, 2-{[6-({5-chloro-2-[9-({1-[2-(2,6-dioxopiperidin-3-yl)-1-oxo-2,3-dihydro-1H-isoindol-4-yl]-4-fluoropiperidin-4-yl}methyl)-3,9-diazaspiro [5.5]undecan-3-yl]pyrimidin-4-yl}amino)-2-oxo-1-(propan-2-yl)-1,2-dihydroquinolin-3-yl]oxy}-N-methylacetamide] |  | 
< 10 | ≥ 70 | CNC(=O)COc1cc2cc(Nc3nc(N4CCC(O[C@H]5C[C@H](N6CCN(c7ccc8c(n7)CN(C7CCC(=O)NC7=O)C8=O)[C@@H](C)C6)C5)CC4)ncc3Cl)ccc2n(C(C)C)c1=O (stereo partly shown) [Compound 192] |  | 
< 10 | 50 to 70 | CNC(=O)COc1cc2cc(Nc3nc(N4CCN(CC5CCC6(CCN(c7ccc8c(c7)CN(C7CCC(=O)NC7=O)C8=O)C6)C5)CC4)ncc3Cl)ccc2n(C(C)C)c1=O (stereo not shown) [Compound 75, 2-{[6-({5-chloro-2-[4-({2-[2-(2,6-dioxopiperidin-3-yl)-1-oxo-2,3-dihydro-1H-isoindol-5-yl]-2-azaspiro[4.4]nonan-7-yl}methyl)piperazin-1-yl]pyrimidin-4-yl}amino)-2-oxo-1-(propan-2-yl)-1,2-dihydroquinolin-3-yl]oxy}-N-methylacetamide] |  | 
< 10 | 50 to 70 | CNC(=O)COc1cc2cc(Nc3nc(N4CCC5(CC4)CC(C(=O)N4CCN(c6cccc7c6CN(C6CCC(=O)NC6=O)C7=O)CC4)C5)ncc3Cl)ccc2n(C(C)C)c1=O (stereo not shown) [Compound 27, 2-[(6-{[5-chloro-2-(2-{4-[2-(2,6-dioxopiperidin-3-yl)-1-oxo-2,3-dihydro-1H-isoindol-4-yl]piperazine-1-carbonyl}-7-azaspiro [3.5]nonan-7-yl)pyrimidin-4-yl]amino}-2-oxo-1-(propan-2-yl)-1,2-dihydroquinolin-3-yl)oxy]-N-methylacetamide] |  | 
< 10 | 50 to 70 | CNC(=O)COc1cc2cc(Nc3nc(N4CCN(CC5CCN(c6ccc7c(c6)CN(C6CCC(=O)NC6=O)C7=O)CC5)CC4)ncc3Cl)ccc2n(C)c1=O (stereo not shown) [Compound 67, 2-{[6-({5-chloro-2-[4-({1-[2-(2,6-dioxopiperidin-3-yl)-1-oxo-2,3-dihydro-1H-isoindol-5-yl]piperidin-4-yl}methyl)piperazin-1-yl]pyrimidin-4-yl}amino)-1-methyl-2-oxo-1,2-dihydroquinolin-3-yl]oxy}-N-methylacetamide] |  | 
< 10 | 50 to 70 | CNC(=O)COc1cc2cc(Nc3nc(N4CCN(CC5CCN(c6cc(F)cc7c6CN(C6CCC(=O)NC6=O)C7=O)CC5)CC4)ncc3Cl)ccc2n(C(C)C)c1=O (stereo not shown) [Compound 105, 2-{[6-({5-chloro-2-[4-({1-[2-(2,6-dioxopiperidin-3-yl)-6-fluoro-1-oxo-2,3-dihydro-1H-isoindol-4-yl]piperidin-4-yl}methyl)piperazin-1-yl]pyrimidin-4-yl}amino)-2-oxo-1-(propan-2-yl)-1,2-dihydroquinolin-3-yl]oxy}-N-methylacetamide] |  | 
< 10 | 50 to 70 | CNC(=O)COc1cc2cc(Nc3nc(N4CCC5(CCN(CC6(F)CCN(c7ccc(F)c8c7CN(C7CCC(=O)NC7=O)C8=O)CC6)CC5)CC4)ncc3Cl)ccc2n(C(C)C)c1=O (stereo not shown) [Compound 129, 2-{[6-({5-chloro-2-[9-({1-[2-(2,6-dioxopiperidin-3-yl)-7-fluoro-1-oxo-2,3-dihydro-1H-isoindol-4-yl]-4-fluoropiperidin-4-yl}methyl)-3,9-diazaspiro[5.5]undecan-3-yl]pyrimidin-4-yl}amino)-2-oxo-1-(propan-2-yl)-1,2-dihydroquinolin-3-yl]oxy}-N-methylacetamide] |  | 
< 10 | 50 to 70 | CNC(=O)COc1cc2cc(Nc3nc(N4CCC(F)(CN5CC(N6CCC(c7ccc8c(c7)C(=O)N(C7CCC(=O)NC7=O)C8=O)CC6)C5)CC4)ncc3Cl)ccc2n(C(C)C)c1=O (stereo not shown) [Compound 97, 2-({6-[(5-chloro-2-{4-[(3-{4-[2-(2,6-dioxopiperidin-3-yl)-1,3-dioxo-2,3-dihydro-1H-isoindol-5-yl]piperidin-1-yl}azetidin-1-yl)methyl]-4-fluoropiperidin-1-yl}pyrimidin-4-yl)amino]-2-oxo-1-(propan-2-yl)-1,2-dihydroquinolin-3-yl}oxy)-N-methylacetamide] |  | 
